Reference: US20100003217A1, “Compounds and Pharmaceutical Compositions for the Treatment of Viral Infections” (priority 2008, published 2010)
Where “and” joins values, the source holds several entries; their conditions need not be identical. Identical values can stand only once.

Test system: Huh-7 cells
Experiment: Metabolic disposition of [^14C]-Compound 1 and [^14C]-2′-C-methyl guanosine in Huh-7 cells (incubation medium, cellular extracts, nucleotide levels)
Type: in vitro ADME, human
Conditions: for Major metabolites observed in cellular extracts (% of total radioactivity) / 2′-C-methyl guanosine nucleotide levels in cellular extracts: Huh7; for % Residual [^14C]-Compound 1 in incubation medium / metabolites observed in medium (% of total radioactivity): Huh7 cells (n=2); for % Residual [^14C]-Compound 1 in incubation medium: 10 μM
Description: Huh-7 cells: Confluent monolayers of Huh-7 cells were dispersed using trypsin-EDTA, rinsed and pelleted by centrifugation at 1,000 rpm (Beckman, Model Allegra 6R). Cells were resuspended at 0.2, 0.3 and 0.4×10^6 cells/mL of medium (DMEM supplemented with 1% pyruvate, 10% FBS, 0.5% penicillin-streptomycin, 1% L-glutamine, 1% non-essential amino acids and 22 mM HEPES). Multi-well collagen I-coated plates (rat tail collagen type I; 6-well) were then seeded by addition of 2.0 mL of cell suspension to achieve final cell density of 0.4, 0.6 and 0.8×10^6 cells/well and placed in an incubator at 37° C. overnight to allow cells to attach and acclimatize to culture and the medium. Duplicate plates were prepared with the same cell density for cell number determination at each time point.
Huh-7 incubations were conducted in a final volume of 2.0 mL Huh7 culture medium/well ([…]). Culture medium from overnight incubation of cells was removed and replaced with fresh culture medium, pre-warmed to 37° C. containing [^14C]-Compound 1 or [^14C]-2′-C-methyl guanosine as described above for primary hepatocytes. After 24, 48 and 72 hours, 0.5-1.0 mL of incubation medium was removed and stored at −20° C. until analysis (described below). The remaining medium was discarded and cell monolayers processed and extracted as described above.
Preliminary identification of putative metabolites was conducted by comparing the retention time of observed metabolites in incubation medium and cellular extracts with retention times obtained with chemically synthesized standards using the chromatography conditions described below. Further identification of 2′-C-methyl guanosine nucleotides (mono-, di- and triphosphate) was carried out by incubating cellular extract samples with alkaline phosphatase (10 units for 60 min at 37° C.) and comparing the HPLC retention times of the resulting nucleosides with that of authentic 2′-C-methyl guanosine.
Cellular extracts were prepared by centrifugation at 16,000 RCF using an Eppendorf microcentrifuge (Eppendorf, Model 5415D) for 10 min to remove cellular debris. An aliquot of 5-10 μL of the supernatant was added to 5 mL of EcoLite™ (MP, Irvine, Calif.) liquid scintillation cocktail and radioactivity measured by liquid scintillation counting (LSC) using a Beckman Coulter LS6500 multipurpose liquid scintillation counter (Beckman Instruments, Fullerton, Calif.). The remaining sample was then dried using a Labconco refrigerated centrivap concentrator (Labconco, Kansas City, Mo.). Dry extracts were reconstituted in 120 μL of HPLC-grade water and centrifuged at 16,000 RCF using an Eppendorf microcentrifuge for 10 min. Prior to HPLC analysis (described below), radioactivity of the concentrated extracts was measured by LSC using 5 μL aliquots. Extraction recovery was then determined by comparing total radioactivity in extracts before and after drying. The remaining extract was then analyzed by HPLC with online radioactivity detection using a Flow Scintillation Analyzer Radiomatic™ 515TR. Radioactivity in the separated components was quantified by integrating the peaks using Flo-One™ Software (Perkin Elmer Life Sciences). Samples with poor recovery (<85%) were re-analyzed when possible.
Incubation medium samples were thawed at room temperature, vortexed and centrifuged at 16,000 RCF using an Eppendorf microcentrifuge. An aliquot of 10 μL was added to 5 mL of EcoLite™ (MP, Irvine, Calif.) liquid scintillation cocktail and radioactivity measured by LSC using a Beckman Coulter LS6500 multipurpose liquid scintillation counter (Beckman Instruments, Fullerton, Calif.). Samples (50-100 μL) were then analyzed by HPLC (described below) with online radioactivity detection using a Flow Scintillation Analyzer Radiomatic™ 515TR. Radioactivity in the separated components was quantified by integrating the peaks using Flo-One™ Software (Perkin Elmer Life Sciences). Samples with poor recovery (<85%) were re-analyzed when possible. […]

[1] = 10 μM [^14C]-Compound 1, 24 h, first series
[2] = 10 μM [^14C]-Compound 1, 24 h, second series
[3] = 10 μM [^14C]-Compound 1, 48 h, first series
[4] = 10 μM [^14C]-Compound 1, 48 h, second series
[5] = 10 μM [^14C]-Compound 1, 72 h, first series
[6] = 10 μM [^14C]-Compound 1, 72 h, second series
[7] = 10 μM [^14C]-2′-C-methyl guanosine, 24 h
[8] = 10 μM [^14C]-2′-C-methyl guanosine, 48 h
[9] = 10 μM [^14C]-2′-C-methyl guanosine, 72 h

| SMILES | Major metabolites observed in cellular extracts (% of total radioactivity) [1] | Major metabolites observed in cellular extracts (% of total radioactivity) [2] | Major metabolites observed in cellular extracts (% of total radioactivity) [3] | Major metabolites observed in cellular extracts (% of total radioactivity) [4] | Major metabolites observed in cellular extracts (% of total radioactivity) [5] | Major metabolites observed in cellular extracts (% of total radioactivity) [6] | Major metabolites observed in cellular extracts (% of total radioactivity) [7] | Major metabolites observed in cellular extracts (% of total radioactivity) [8] | Major metabolites observed in cellular extracts (% of total radioactivity) [9] | metabolites observed in medium (% of total radioactivity) (10 μM [^14C]-Compound 1, 0 h) | metabolites observed in medium (% of total radioactivity) (10 μM [^14C]-Compound 1, 24 h) | metabolites observed in medium (% of total radioactivity) (10 μM [^14C]-Compound 1, 48 h) | metabolites observed in medium (% of total radioactivity) (10 μM [^14C]-Compound 1, 72 h) | also measured |
| --- | --- | --- | --- | --- | --- | --- | --- | --- | --- | --- | --- | --- | --- | --- |
| CC(C)(CO)C(=O)SCCOP(=O)(NCc1ccccc1)OC[C@H]1O[C@@H](n2cnc3c(=O)[nH]c(N)nc32)[C@](C)(O)[C@@H]1O (mixture of isomers) [Compound 1, 3-hydroxy-2,2-dimethyl-thiopropionic acid S-(2-{[(2R,3R,4R,5R)-5-(2-amino-6-oxo-1,6-dihydro-purin-9-yl)-3,4-dihydroxy-4-methyl-tetrahydro-furan-2-ylmethoxy]-benzylamino-phosphoryloxy}-ethyl) ester] | 40.3 % of total radioactivity | 10.4 % of total radioactivity | 15.8 % of total radioactivity | 21.2 % of total radioactivity | 14.1 % of total radioactivity | 16.2 % of total radioactivity |  |  |  |  |  |  |  | % Residual [^14C]-Compound 1 in incubation medium (0 h): 98% and 96%; % Residual [^14C]-Compound 1 in incubation medium (24 h): 86% and 85%; % Residual [^14C]-Compound 1 in incubation medium (48 h): 76% and 77%; % Residual [^14C]-Compound 1 in incubation medium (72 h): 67% and 65% and 68%; unchanged Compound 1, % of the total radioactivity (Huh7 cells, after 72 hours incubation with [^14C]-Compound 1): 15% |
| C[C@@]1(O)[C@H](O)[C@@H](CO)O[C@H]1n1cnc2c(=O)[nH]c(N)nc21 [2′-C-methyl guanosine, 9-(2-C-methyl-β-D-ribofuranosyl)guanine, reference compound] | BLD^a (BLD = below limit of detection (30 DPM)) | BLD^a (BLD = below limit of detection (30 DPM)) | BLD (BLD = below limit of detection (30 DPM)) | 2.65 % of total radioactivity | BLD (BLD = below limit of detection (30 DPM)) | BLD (BLD = below limit of detection (30 DPM)) | 89.5 % of total radioactivity | 89.3 % of total radioactivity | 89.6 % of total radioactivity | BLD and BLD^a | 2.2% and 1.10% and 1.2% | 2.7% and 0.5% | 2% and 2.3% and 1.5% | metabolites in the incubation medium following incubation with [^14C]-2′-C-methyl guanosine (Huh7 cells): No metabolites were observed |
| C[C@@]1(O)[C@H](O)[C@@H](COP(=O)(O)NCc2ccccc2)O[C@H]1n1cnc2c(=O)[nH]c(N)nc21 [Compound 2, [(2R)-2-methyl-β-D-ribofuranosyl]guanine-N-benzylaminyl-5′-monophosphate] |  |  |  |  |  |  |  |  |  | 1.7% and 2.9% | 8.2% and 8.0% | 18.3% and 17.2% | 26% and 25.3% and 27.2% |  |
| C[C@@]1(O)[C@H](O)[C@@H](COP(=O)(O)O)O[C@H]1n1cnc2c(=O)[nH]c(N)nc21 [Compound 5, [(2R)-2-methyl-β-D-ribofuranosyl]guanine 5′-monophosphate] | BLD (BLD = below limit of detection (30 DPM)) | 4.81 % of total radioactivity | 6.57 % of total radioactivity | 5.82 % of total radioactivity | 6.93 % of total radioactivity | 5.74 % of total radioactivity | BLD^a (BLD = below limit of detection (30 DPM)) | BLD (BLD = below limit of detection (30 DPM)) | BLD (BLD = below limit of detection (30 DPM)) | BLD | 2.0% and 3.2% | 0.8% and 1.5% | 0.7% and 1.0% | 2′-C-methyl guanosine nucleotide levels in cellular extracts (10 μM [^14C]-2′-C-methyl guanosine, 0 h, n = 1): 0 pmol/million cells; 2′-C-methyl guanosine nucleotide levels in cellular extracts (10 μM [^14C]-2′-C-methyl guanosine, 24 h, n = 1): BLD^a (BLD = below limit of detection (0.02 pmol/million cells)); 2′-C-methyl guanosine nucleotide levels in cellular extracts (10 μM [^14C]-2′-C-methyl guanosine, 48 h, n = 1): BLD (BLD = below limit of detection (0.02 pmol/million cells)); 2′-C-methyl guanosine nucleotide levels in cellular extracts (10 μM [^14C]-2′-C-methyl guanosine, 72 h, n = 1): BLD (BLD = below limit of detection (0.02 pmol/million cells)); 2′-C-methyl guanosine nucleotide levels in cellular extracts (10 μM [^14C]-Compound 1, 0 h, replicate 1 of n = 2): 0 pmol/million cells; 2′-C-methyl guanosine nucleotide levels in cellular extracts (10 μM [^14C]-Compound 1, 0 h, replicate 2 of n = 2): 0 pmol/million cells; 2′-C-methyl guanosine nucleotide levels in cellular extracts (10 μM [^14C]-Compound 1, 24 h, replicate 1 of n = 2): BLD^a (BLD = below limit of detection (0.02 pmol/million cells)); 2′-C-methyl guanosine nucleotide levels in cellular extracts (10 μM [^14C]-Compound 1, 24 h, replicate 2 of n = 2): 1.40 pmol/million cells; 2′-C-methyl guanosine nucleotide levels in cellular extracts (10 μM [^14C]-Compound 1, 48 h, replicate 1 of n = 2): 1.50 pmol/million cells; 2′-C-methyl guanosine nucleotide levels in cellular extracts (10 μM [^14C]-Compound 1, 48 h, replicate 2 of n = 2): 1.50 pmol/million cells; 2′-C-methyl guanosine nucleotide levels in cellular extracts (10 μM [^14C]-Compound 1, 72 h, replicate 1 of n = 2): 1.10 pmol/million cells; 2′-C-methyl guanosine nucleotide levels in cellular extracts (10 μM [^14C]-Compound 1, 72 h, replicate 2 of n = 2): 1.10 pmol/million cells |
